Measurements as given in PMC5784979, “Direct comparison of the four aldehyde oxidase enzymes present in mouse gives insight into their substrate specificities” (PLoS ONE, 2018).

Target: T1, mAOX4 (Mus musculus, UniProt Q3TYQ9)
T1 construct: gene Aox4; recombinant from E. coli TP1000 (plasmid pMAOX4), Ni-NTA and Superdex 200 purified, chemically sulfurated, dimer (300 kDa)
T1 sequence (Q3TYQ9 1-1336): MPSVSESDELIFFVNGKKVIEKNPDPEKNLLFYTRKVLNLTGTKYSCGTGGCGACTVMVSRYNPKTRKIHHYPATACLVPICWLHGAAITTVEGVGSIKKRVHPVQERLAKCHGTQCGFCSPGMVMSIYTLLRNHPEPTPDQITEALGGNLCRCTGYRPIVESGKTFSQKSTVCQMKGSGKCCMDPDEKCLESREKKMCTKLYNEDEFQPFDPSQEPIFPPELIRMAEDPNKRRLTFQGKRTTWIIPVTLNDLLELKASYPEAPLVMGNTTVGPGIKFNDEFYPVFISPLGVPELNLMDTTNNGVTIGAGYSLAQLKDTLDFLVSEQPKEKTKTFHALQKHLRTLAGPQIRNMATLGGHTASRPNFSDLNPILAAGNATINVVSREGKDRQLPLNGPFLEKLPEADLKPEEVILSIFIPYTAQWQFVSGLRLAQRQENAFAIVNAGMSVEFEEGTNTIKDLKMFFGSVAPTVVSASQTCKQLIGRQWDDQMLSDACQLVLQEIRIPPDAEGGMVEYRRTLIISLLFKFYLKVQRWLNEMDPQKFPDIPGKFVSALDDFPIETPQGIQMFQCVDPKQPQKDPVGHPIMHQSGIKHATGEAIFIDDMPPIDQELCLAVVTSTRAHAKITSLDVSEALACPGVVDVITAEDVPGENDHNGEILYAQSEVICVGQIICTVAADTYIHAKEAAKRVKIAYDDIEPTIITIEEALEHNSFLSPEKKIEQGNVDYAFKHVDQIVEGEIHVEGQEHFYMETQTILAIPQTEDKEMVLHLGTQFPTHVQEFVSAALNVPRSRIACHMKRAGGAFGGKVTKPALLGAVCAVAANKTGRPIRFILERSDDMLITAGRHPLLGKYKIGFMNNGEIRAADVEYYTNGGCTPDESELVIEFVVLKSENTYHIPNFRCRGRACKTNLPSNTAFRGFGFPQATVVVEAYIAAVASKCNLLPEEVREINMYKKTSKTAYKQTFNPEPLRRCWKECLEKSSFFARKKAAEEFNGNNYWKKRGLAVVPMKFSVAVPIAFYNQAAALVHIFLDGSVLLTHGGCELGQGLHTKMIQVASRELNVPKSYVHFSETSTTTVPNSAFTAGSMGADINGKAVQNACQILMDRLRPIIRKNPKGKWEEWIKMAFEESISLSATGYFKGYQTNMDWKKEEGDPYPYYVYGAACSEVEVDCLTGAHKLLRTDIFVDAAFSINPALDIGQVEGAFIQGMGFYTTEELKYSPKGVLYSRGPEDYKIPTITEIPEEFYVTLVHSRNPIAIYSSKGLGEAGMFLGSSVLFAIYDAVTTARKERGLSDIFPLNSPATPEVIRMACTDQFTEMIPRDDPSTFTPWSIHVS
Assay: DCPIP reduction at […] nm, steady-state kinetics
Format: biochemical
Settings: 100 μM DCPIP as electron acceptor, 50 mM Tris-HCl, 1 mM EDTA, pH 8.0, 37°C, corrected to 100% Mo saturation

Km (limit given jointly for mAOX3, mAOX4 and mAOX2) [mM]	Km [mM]	Structure (SMILES)
< 0.002		O=Cc1ccc(O)cc1 [4-hydroxybenzaldehyde]
	4.4 to 4.6	CC=O [acetaldehyde]
